According to US20210171576A1, “METHODS FOR TREATING CANCER WITH ACYLDEPSIPEPTIDE ANALOGS” (priority 2018, published 2021):
Where a SMILES comes first, the peptide text is derived from it. Bridges are numbered along the chain shown (N, C = ends). [ ]: non-standard residue; d: D form. The star is where a group is joined. Phe(3,5-F2) = N[C@@H](Cc1cc(F)cc(F)c1)C(=O)O; Heptenoyl(2E) = CCCC/C=C/C(=O)*; aThr = C[C@H](O)[C@H](N)C(=O)O; Pip = O=C(O)[C@@H]1CCCCN1

What was measured:
[1] = tested on: undifferentiated SH-SY5Y cells; assay: Cytotoxicity, SRB staining
Description: (§1) To assess the cytotoxicity of ADEP analogs, cells were seeded at 1×10^3 or 2×10^3 cells in 50 μL per well on sterile 96-well flat-bottom tissue culture plates (VWR). Growth media without any cells was included as a control. Cells were grown for at least 24 hours to allow proper adherence to the growth surface. Afterwards, ADEP analogs were serially diluted and introduced to the tissue cultures via fresh growth media at 50 μL per well. Inclusion of activators/DMSO brought the final DMSO concentration of the growth media up to a maximum of 0.5% (v:v). […] A total of four independent replicates were prepared for each cell line and for each growth condition used. Cells were grown in the presence of ADEP/DMSO for 72 hours.
(§2) To assess cell survival, live adherent cells were fixed with 10% (w:v) trichloroacetic acid (TCA) at 4° C. for 1-2 hours. The tissue culture plates were then rinsed with water to remove dead cells and cell debris and air-dried overnight. […] Absorbance at λ=510 nm (A510) was then measured using the EnSpire 2300 Multilabel Reader. […]
(§3) To determine the IC50 for the ADEP analogs, relative cell viability (RCV) values were calculated by normalizing the A510 readings in ADEP-containing sample to the DMSO-only control. […]

[2] = tested on: HEK293 T-REx+CLPP-FLAG cells; assay: Cytotoxicity, SRB staining, with or without Dox
Description: (§4) To assess the cytotoxicity of ADEP analogs, cells were seeded at 1×10^3 or 2×10^3 cells in 50 μL per well on sterile 96-well flat-bottom tissue culture plates (VWR). Growth media without any cells was included as a control. Cells were grown for at least 24 hours to allow proper adherence to the growth surface. Afterwards, ADEP analogs were serially diluted and introduced to the tissue cultures via fresh growth media at 50 μL per well. Inclusion of activators/DMSO brought the final DMSO concentration of the growth media up to a maximum of 0.5% (v:v). For experiments that involve overexpression of FLAG-tagged HsCIpP (WT or S153A mutant), Dox (Sigma-Aldrich) was also applied at 0.4 μg/mL (final concentration) as needed. A total of four independent replicates were prepared for each cell line and for each growth condition used. Cells were grown in the presence of ADEP/DMSO for 72 hours.
as §2, §3

HEK293 T-REx WT cells [3] = assay: TUNEL assay, fluorescence microscopy; type: cell-based, human; conditions: 10 μM, 72 hours
Description: Prior to use, the cover slips were cleaned by treatment with 1 M HCl for 2-3 days, followed by thorough rinsing with distilled water and a second treatment with 95% ethanol for 16-18 hours. The cleaned cover slips were sterilized by autoclaving and dried under UV light. To ensure proper attachment of the cells, the sterilized cover slips were coated with gelatin by application of a 0.2% solution and incubation at 37° C. for at least 2 hours. Excess gelatin solution was then removed, and the cover slips were allowed to dry in a sterile environment for 2-4 hours before use.
WT cells treated with ADEP-41 were seeded at a density of 1×10^5 cells/mL (2 mL per well) to compensate for lack of cell growth and division resulting from the ADEP treatment. […]
Cells were fixed in the presence of 4% formaldehyde at room temperature for 30-45 minutes, followed by membrane permeabilization with 0.1% Triton X-100 (in PBS from Gibco) supplemented with 0.1% sodium citrate at room temperature for 30 minutes. […] Cells were mounted onto standard glass microscope slides with DAPI Fluoromount-G (Southern Biotech) for visual examination using the Eclipse 80i fluorescence microscope (Nikon) equipped with the X-Cite Series 120Q excitation light source (Excelitas Technologies). Both light and fluorescence microscopic images were captured and analyzed using the NIS-Elements Basic Research Software (Nikon).

U2OS cells = assay: Cytotoxicity, SRB staining
Description: as §1, §2, §3

[4] = tested on: HEK293 T-REx+CLPPS153A-FLAG cells; assay: Cytotoxicity, SRB staining, with or without Dox
Description: as §4, §2, §3

HeLa T-REx cells = assay: Cytotoxicity, SRB staining
Description: as §1, §2, §3

HEK293 T-REx WT cells [5] = assay: Western blots for HsCIpX and apoptotic protein markers; type: cell-based, human
Description: Cells were harvested by the standard trypsinization protocol and counted with a hemocytometer. Cell lysates were prepared by first re-suspending the cells in PBS at 5×10^6 cells/mL, followed by sonication. Proteins in the lysates were analyzed by Western blotting using Immobilin-P PVDF membranes (EMD Millipore). Blots were imaged and analyzed with the ChemiDoc XRS+ System (BioRad). Quantification of HsCIpP expression was performed by densitometry using the Quantity One 1D Analysis Software (BioRad). HsCIpP expression levels were corrected for sample loading errors and normalized to the expression level in HEK293 T-REx WT. Primary antibodies for HsCIpP, HsCIpX and GAPDH were purchased from Abcam. Primary antibodies for Caspase-8, Caspase-9 and PUMA were purchased from Cell Signaling Technologies. The primary antibody for Caspase-3 was purchased from R&D Systems. Primary antibodies for Mcl-1 and Bcl-2 were purchased from EMD Millipore. The primary antibody for the FLAG-tag was purchased from Sigma-Aldrich. HRP-conjugated goat anti-rabbit IgG (for HsCIpX, Caspase-8, Caspase-9 and PUMA) and HRP-conjugated goat anti-mouse IgG (for HsCIpP, Mcl-1, Bcl-2, GAPDH and FLAG-tag) were purchased from BioRad. HRP-conjugated rabbit anti-goat IgG (for Caspase-3) was purchased from Sigma-Aldrich.

## CCCC/C=C/C(=O)N[C@@H](Cc1cc(F)cc(F)c1)C(=O)N[C@@H]1C(=O)N2CCC[C@H]2C(=O)N2CCCC[C@H]2C(=O)N[C@@H](C)C(=O)N2CCC[C@H]2C(=O)O[C@H]1C [ADEP-41] ({Heptenoyl(2E)}-[Phe(3,5-F2)][aThr]P[Pip]AP; ester 2-C)
[1]
  IC50 compared across cell lines: slightly higher value
[2]; 0.4 μg/mL Dox, HsCIpP overexpression
  change in IC50 relative to WT: significant decrease in IC50
[2]; without Dox
  sensitivity relative to WT: equally sensitive
HEK293 T-REx WT cells [3]
  TUNEL-positive cells relative to DMSO-treated WT cells: about 20 times
U2OS cells
  IC50 compared across cell lines: similar
[4]; 0.4 μg/mL Dox, inactive HsCIpP(S153A) overexpression
  change in IC50: no change in IC50
[4]; without Dox
  sensitivity relative to WT: equally sensitive
HeLa T-REx cells
  IC50 compared across cell lines: similar
HEK293 T-REx WT cells [5]; 10 μM, 72 hours
  activation-specific cleavage of Caspase-8: no activation-specific cleavage was observed
  activation-specific cleavage of Caspase-9 and Caspase-3: activation-specific cleavage was detected
  level of anti-apoptotic Bcl-2 protein: no change
HEK293 T-REx WT cells [5]; 20 μM 24 hours or 10 μM 72 hours
  HsCIpX level: no longer detected
HEK293 T-REx WT cells [5]; 20 μM, 24 hours
  activation-specific cleavage of Caspase-8, Caspase-9 or Caspase-3: no activation-specific cleavage was observed
  anti-apoptotic Mcl-1 protein: degraded
  pro-apoptotic PUMA protein: significantly upregulated
